{"source": "ChEMBL document CHEMBL3351444", "about": "“Poliothrysoside and its derivatives as novel insulin sensitizers potentially driving AMPK activation and inhibiting adipogenesis” (Eur J Med Chem, 2014)", "key": {"3T3-L1 [1]": {"tested_on": "3T3-L1", "experiment": "Induction of [3H] 2-deoxyglucose uptake in chronic insulin resistant mouse 3T3L1 cells assessed as maximum uptake at 10 uM by liquid scintillation counting", "type": "functional"}, "3T3-L1 [2]": {"tested_on": "3T3-L1", "experiment": "Induction of [3H] 2-deoxyglucose uptake in chronic insulin resistant mouse 3T3L1 cells assessed as maximum uptake by liquid scintillation counting", "type": "functional, cell-based"}, "3T3-L1 [3]": {"tested_on": "3T3-L1", "experiment": "Induction of AMPK phosphorylation in mouse 3T3L1 cells at 10 uM by Western blot analysis", "type": "cell-based"}, "3T3-L1 [4]": {"tested_on": "3T3-L1", "experiment": "Induction of AKT phosphorylation in mouse 3T3L1 cells at 10 uM by Western blot analysis", "type": "cell-based"}, "3T3-L1 [5]": {"tested_on": "3T3-L1", "experiment": "Induction of [3H] 2-deoxyglucose uptake in chronic insulin resistant mouse 3T3L1 cells at 10 uM after 24 hrs by liquid scintillation counting in presence of AMPK inhibitor compound C", "type": "functional, cell-based"}, "3T3-L1 [6]": {"tested_on": "3T3-L1", "experiment": "Inhibition of adipogenesis in mouse 3T3L1 cells assessed as reduction in lipid droplet formation at 20 uM by using Oil-Red O by microscopy", "type": "functional"}, "3T3-L1 [7]": {"tested_on": "3T3-L1", "experiment": "Inhibition of adipogenesis in mouse 3T3L1 cells assessed as reduction in lipid droplet formation at 50 uM by using Oil-Red O by microscopy", "type": "functional"}, "3T3-L1 [8]": {"tested_on": "3T3-L1", "experiment": "Inhibition of adipogenesis in mouse 3T3L1 cells assessed as reduction in lipid droplet formation at 10 uM by using Oil-Red O by microscopy", "type": "functional, cell-based"}, "[9]": {"experiment": "Toxicity in mouse 3T3L1 cells", "type": "cell-based", "conditions": "3t3-l1"}, "3T3-L1 [10]": {"tested_on": "3T3-L1", "experiment": "Inhibition of adipogenesis in mouse 3T3L1 cells assessed as reduction in lipid droplet formation by using Oil-Red O by microscopy", "type": "functional, cell-based"}, "3T3-L1 [11]": {"tested_on": "3T3-L1", "experiment": "Induction of AMPK phosphorylation in mouse 3T3L1 cells at 1 mM by Western blot analysis", "type": "cell-based"}}, "note": "Active and inactive are the calls of the source. The rule behind the calls is not given here."}
{"smiles": "CC(=O)OCc1cc(OC(C)=O)ccc1O[C@@H]1O[C@H](COC(=O)c2ccccc2)[C@@H](OC(C)=O)[C@H](OC(C)=O)[C@H]1OC(C)=O", "values": [{"measurement": "Activity", "setting": "3T3-L1 [1]", "result": 17.35, "unit": "pmol/mg/min"}, {"measurement": "Activity", "setting": "3T3-L1 [2]", "result": "Dose-dependent effect"}, {"measurement": "Activity", "setting": "3T3-L1 [3]", "result": "Active"}, {"measurement": "Activity", "setting": "3T3-L1 [4]", "result": "inactive"}, {"measurement": "Activity", "setting": "3T3-L1 [5]", "result": "inactive"}, {"measurement": "inhibition at 20 µM", "setting": "3T3-L1 [6]", "result": 20, "unit": "%"}, {"measurement": "inhibition at 50 µM", "setting": "3T3-L1 [7]", "result": 64, "unit": "%"}, {"measurement": "inhibition", "setting": "3T3-L1 [8]", "result": "inactive"}, {"measurement": "Activity", "setting": "[9]", "result": "Non-toxic"}, {"measurement": "inhibition", "setting": "3T3-L1 [10]", "result": "Dose-dependent effect"}]}
{"smiles": "O=C(OC[C@H]1O[C@@H](Oc2ccc(OCc3ccccc3)cc2CO)[C@H](O)[C@@H](O)[C@@H]1O)c1ccccc1", "values": [{"measurement": "Activity", "setting": "3T3-L1 [1]", "result": "Active"}]}
{"smiles": "O=C(COc1ccc(O[C@@H]2O[C@H](COC(=O)c3ccccc3)[C@@H](O)[C@H](O)[C@H]2O)c(CO)c1)c1ccccc1", "values": [{"measurement": "Activity", "setting": "3T3-L1 [1]", "result": "Active"}]}
{"smiles": "O=C(OC[C@H]1O[C@@H](Oc2ccc(OCc3ccc([N+](=O)[O-])cc3)cc2CO)[C@H](O)[C@@H](O)[C@@H]1O)c1ccccc1", "values": [{"measurement": "Activity", "setting": "3T3-L1 [1]", "result": "Active"}]}
{"smiles": "CN(C)C(=N)NC(=N)N", "values": [{"measurement": "Activity", "setting": "3T3-L1 [11]", "result": "Active"}]}
{"smiles": "O=C(COc1ccc(O[C@@H]2O[C@H](COC(=O)c3ccccc3)[C@@H](O)[C@H](O)[C@H]2O)c(CO)c1)c1ccc(Cl)cc1", "values": [{"measurement": "Activity", "setting": "3T3-L1 [1]", "result": "Active"}]}
{"smiles": "O=C(OC[C@H]1O[C@@H](Oc2ccc(O)cc2CO)[C@H](O)[C@@H](O)[C@@H]1O)c1ccccc1", "values": [{"measurement": "Activity", "setting": "3T3-L1 [1]", "result": "Active"}]}
{"smiles": "CCOc1ccc(O[C@@H]2O[C@H](COC(=O)c3ccccc3)[C@@H](O)[C@H](O)[C@H]2O)c(CO)c1", "values": [{"measurement": "Activity", "setting": "3T3-L1 [1]", "result": "Active"}]}
